{"source": "patent US12649730B2", "about": "(MITOIMMUNE THERAPEUTICS INC., priority 2021, dated 2026)", "key": {"H9C2 cells [1]": {"system": "H9C2 cells", "assay": "Cytoplasmic calcium concentration under tBHP treatment (FLIPR Calcium 6 assay kit)", "assay_type": "cell-based", "settings": "150 μM tBHP", "procedure": "To examine the calcium concentration maintenance effect in cardiomyocytes, H9C2 cells were placed in a 96 well plate at 1.5×10^4 cells/well and cultured for 24 hours. To measure cytoplasmic calcium concentration, a FLIPR Calcium 6 assay kit (Molecular devices; #R8190) was used. Following the manufacturer's experimental method, the cells were treated with probenecid and calcium-specific dye. […] For stimulation of cells, the cells were treated with tBHP to a final concentration of 150 μM, then cytoplasmic calcium concentration was measured every 30 seconds in real time. […] The ΔF/F (Max-Min) value of the vertical axis is the difference between the maximum and minimum values for the fluorescence value of calcium-specific dye after tBHP treatment. The ΔF/F value increases with cytoplasmic calcium concentration. The horizontal axis indicates the concentration of Chemical Formula 1, and V.C. is a control only treated with the vehicle, where cytoplasmic calcium concentration increases most when treated with tBHP."}, "C8-D1A cells": {"system": "C8-D1A cells", "assay": "Peroxynitrite removal in astrocytes under SIN-1 (DAX-J2 PON Green)", "assay_type": "cell-based", "settings": "10 μM and 30 μM, 200 μM SIN-1", "procedure": "(§1) To confirm the effect of removing peroxynitrite produced from macrophages, RAW264.7 cells were seeded in a 96 well plate at 1×10^5 cells/well and cultured for 24 hours. Peroxynitrite was measured by fluorescence measurement using DAX-J2™ PON Green dye. […] Thereafter, SIN-1 was treated to a final concentration of 200 μM, and the amount of peroxynitrite generated in the cell every 2 minutes in real time was measured through fluorescence intensity. To confirm the effect of removing peroxynitrite from astrocytes, C8-D1A cells were seeded in a 96 well plate at 6×10^4 cells/well and cultured for 24 hours, and the experiment was performed under the same conditions. […] The horizontal axis represents the concentrations of the compound of Formula 1 and ascorbic acid, and V.C is the control treated with only the vehicle, and the concentration of intracellular peroxynitrite increases the most during SIN-1 treatment. The vertical axis represents the total amount of peroxynitrite generated 1 hour after SIN-1 treatment."}, "RAW264.7 cells": {"system": "RAW264.7 cells", "assay": "Peroxynitrite removal in macrophages under SIN-1 (DAX-J2 PON Green)", "assay_type": "cell-based", "settings": "RAW264.7 macrophages, 10 μM and 30 μM, 200 μM SIN-1", "procedure": "as §1"}, "[2]": {"assay": "Solubility screening of the compound of Chemical Formula 1 in various solvents (supernatant, HPLC)", "assay_type": "physicochemical"}, "H9C2 cells [3]": {"system": "H9C2 cells", "assay": "Intra-mitochondrial superoxide imaging with MitoSOX under tBHP", "assay_type": "cell-based", "settings": "1 μM compound, 50 μM tBHP 1 hour", "procedure": "To measure the superoxides among the reactive oxygen species occurring in mitochondria, intracellular fluorescent imaging was used by using MitoSOX™ (Red Mitochondrial Superoxide Indicator). […] The cell culture medium was replaced with a medium without phenol red, then the cells were treated for 30 minutes with HOECHST (0.5 drop/ml), MitoTracker Green (150 nM) and MitoSOX (2 μM) before observing intracellular fluorescence through imaging."}, "[4]": {"system": "MPTP-induced Parkinson's disease mouse model", "assay": "Grip strength test in MPTP-induced Parkinson's disease mouse model", "assay_type": "in vivo, C57BL/6 mice", "settings": "intraperitoneally once a day, low, medium and high doses, 6 days from 2 days after MPTP"}, "H9C2 cells [5]": {"system": "H9C2 cells", "assay": "Mitochondrial calcium imaging with Rhod-2 under tBHP, thapsigargin and CaCl2", "assay_type": "cell-based", "settings": "10 μM compound, 150 μM tBHP, 1.2 μM thapsigargin, 2 mM CaCl2", "procedure": "In addition, in order to confirm the effect of inhibiting the increase in mitochondrial calcium concentration in cardiomyocytes by cell imaging, H9C2 cells were seeded in a 35 mm culture dish at 1.5×10^4 cells and cultured for 24 hours. Imaging of calcium concentration in mitochondria was performed using Rhod-2. The cells were treated with Rhod-2, MitoTracker Green (200 nM), and Hoechst33342 (2 drops/ml) for 50 minutes, washed twice with KRB buffer, and incubated for another 30 minutes with buffer solution. The cells were treated with the compound of Formula 1 for 0.25 hours to final concentration of 10 μM, and treated with tBHP for 30 minutes to final concentration of 150 μM. Then, the cells were treated with 1.2 μM thapsigargin for 10 minutes and 2 mM of CaCl2, and the fluorescence developed in mitochondrial calcium of the living cells was observed through imaging."}, "H9C2 cells [6]": {"system": "H9C2 cells", "assay": "Intra-mitochondrial reactive oxygen species, DHR-123 fluorometry under tBHP", "assay_type": "cell-based", "settings": "0.0001 to 30 μM compound, 400 μM tBHP", "procedure": "To examine the intra-mitochondrial reactive oxygen species removal effect in cardiomyocytes, H9C2 cells were placed in a 96 well plate at 1.5×10^4 cells/well and cultured for 24 hours. To measure mitochondria-specific reactive oxygen species, fluorometry using dihydrorhodamine-123 (DHR-123) was used."}, "[7]": {"assay": "Solubility equilibrium in DMSO/EtOH mixed solvent by temperature", "assay_type": "physicochemical", "settings": "organic solvent or mixture, thermodynamic from solid", "procedure": "These were respectively heated and held at 50° C., 60° C., and 75° C. while being agitated for 6 hours. […] Accordingly, it was decided that a super-saturation method would be considered."}, "[8]": {"system": "MPTP-induced Parkinson's disease mouse model", "assay": "TH (Tyrosine hydroxylase) staining of brain tissue in MPTP-induced Parkinson's disease mouse model", "assay_type": "in vivo, C57BL/6 mice", "settings": "medium and high doses", "procedure": "Behavioral disorders were induced by administering 20 mg/kg MPTP to C57BL/6 mice a total of 4 times at 2 hour intervals. […] On the 6th day after administration of the compound of Formula 1, mice were sacrificed, frozen sections of brain tissue were prepared, and TH (Tyrosine hydroxylase) staining was performed."}, "[9]": {"system": "MPTP-induced Parkinson's disease mouse model", "assay": "Pole test in MPTP-induced Parkinson's disease mouse model", "assay_type": "in vivo, C57BL/6 mice", "settings": "intraperitoneally once a day, low, medium and high doses, 6 days from 2 days after MPTP"}, "[10]": {"settings": "intraperitoneally once a day, low, 6 days"}}, "note": "Read-outs that look alike come from different tables or passages of the source."}
{"smiles": "O=S1(=O)CCN(Cc2cc(NC3CCOCC3)c3[nH]c(-c4ccccc4)cc3c2)CC1", "note": "[compound of Chemical Formula 1, 5-[(1,1-dioxido-4-thiomorpholinyl)methyl]-2-phenyl-N-(tetrahydro-2H-pyran-4-yl)-1H-indol-7-amine]", "values": [{"measurement": "Cytoplasmic calcium concentration (ΔF/F Max-Min) after tBHP", "setting": "H9C2 cells [1]; 0.01 μM compound", "value": "reduced"}, {"measurement": "Cytoplasmic calcium concentration (ΔF/F Max-Min) after tBHP", "setting": "H9C2 cells [1]; 0.1 μM compound", "value": "normal level of cytoplasmic calcium concentration"}, {"measurement": "Peroxynitrite inhibition compared with positive control ascorbic acid", "setting": "C8-D1A cells", "value": "superior inhibitory effect than ascorbic acid"}, {"measurement": "Total peroxynitrite generated 1 hour after SIN-1 treatment", "setting": "C8-D1A cells", "value": "peroxynitrite generation was inhibited by treatment with the compound of Formula 1 in a concentration-dependent manner"}, {"measurement": "Peroxynitrite inhibition compared with positive control ascorbic acid", "setting": "RAW264.7 cells", "value": "superior inhibitory effect than ascorbic acid"}, {"measurement": "Total peroxynitrite generated 1 hour after SIN-1 treatment", "setting": "RAW264.7 cells", "value": "peroxynitrite generation was inhibited by treatment with the compound of Formula 1 in a concentration-dependent manner"}, {"measurement": "Solubility", "setting": "[2]; Heptane, 25° C.", "value": "<LOQ"}, {"measurement": "Solubility", "setting": "[2]; Heptane, 50° C.", "value": "<LOQ"}, {"measurement": "Solubility", "setting": "[2]; MTBE, 25° C.", "value": 0.06, "unit": "mg/mL"}, {"measurement": "Solubility", "setting": "[2]; MTBE, 50° C.", "value": 0.07, "unit": "mg/mL"}, {"measurement": "Solubility", "setting": "[2]; THF, 25° C.", "value": 17.40, "unit": "mg/mL"}, {"measurement": "Solubility", "setting": "[2]; in most solvents (Table 3)", "value": "very low"}, {"measurement": "Solubility", "setting": "[2]; organic solvent or mixture, thermodynamic from solid, in DMF, NMP and DMSO (Table 3), read-out: Solubility", "value": "≥ 40", "unit": "mg/mL"}, {"measurement": "Intra-mitochondrial superoxide (MitoSOX fluorescence)", "setting": "H9C2 cells [3]", "value": "effectively removes intra-mitochondrial reactive oxygen species including superoxides"}, {"measurement": "Grip force value", "setting": "[4]", "value": "restored in a concentration-dependent manner"}, {"measurement": "Mitochondrial calcium concentration (Rhod-2 fluorescence)", "setting": "H9C2 cells [5]", "value": "effectively inhibited the increase in the calcium concentration in mitochondria"}, {"measurement": "Total intra-mitochondrial reactive oxygen species over 2 hours after tBHP (DHR-123)", "setting": "H9C2 cells [6]", "value": "inhibit occurrence of reactive oxygen species in a concentration-dependent manner"}, {"measurement": "solubility at 6 h", "setting": "[7]; DMSO/EtOH 1:4 mixed solvent, DMSO/EtOH 1:4, 50° C.", "value": 15, "unit": "mg/mL"}, {"measurement": "solubility at 6 h", "setting": "[7]; DMSO/EtOH 1:4 mixed solvent, DMSO/EtOH 1:4, 60° C.", "value": 19, "unit": "mg/mL"}, {"measurement": "solubility at 6 h", "setting": "[7]; DMSO/EtOH 1:4 mixed solvent, DMSO/EtOH 1:4, 75° C.", "value": 31, "unit": "mg/mL"}, {"measurement": "solubility at 6 h", "setting": "[7]; DMSO/EtOH 1:5 mixed solvent, DMSO/EtOH 1:5, 50° C.", "value": 12, "unit": "mg/mL"}, {"measurement": "solubility at 6 h", "setting": "[7]; DMSO/EtOH 1:5 mixed solvent, DMSO/EtOH 1:5, 60° C.", "value": 14, "unit": "mg/mL"}, {"measurement": "solubility at 6 h", "setting": "[7]; DMSO/EtOH 1:5 mixed solvent, DMSO/EtOH 1:5, 75° C.", "value": 19, "unit": "mg/mL"}, {"measurement": "TH level in the striatum", "setting": "[8]; [10]", "value": "recovered in a concentration-dependent manner"}, {"measurement": "TH level in the substantia nigra", "setting": "[8]; [10]", "value": "recovered in a concentration-dependent manner"}, {"measurement": "TH level in the striatum", "setting": "[8]", "value": "significantly increased"}, {"measurement": "Pole test T-turn time", "setting": "[9]", "value": "recovered in a concentration-dependent manner"}, {"measurement": "Pole test total time", "setting": "[9]", "value": "recovered in a concentration-dependent manner"}]}
